From patent publication US10669283B2, “Compound and pharmacologically acceptable salt thereof” (MEIJI SEIKA PHARMA CO., LTD., priority 2016, dated 2020) come the findings set out here.

Molecules are shown by their SMILES. A value given as a limit tells only on which side of the number the result lay.

The first test deals with PDE4. The test is described as follows: PDE4 inhibition, scintillation proximity assay (SPA).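 As to PDE4 Inhibitory Activity (concentration for the inhibition rate of 50%): A below 100 nM B 100 to below 1000 nM C 1000 nM or more.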 The following applies: scintillation proximity assay (SPA); evaluated as classes A, B, C; read-out: PDE4 Inhibitory Activity (concentration for the inhibition rate of 50%). The class given is biochemical. The essentials:
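Compound pre-diluted 1:10 in 50 mM Tris-HCl pH 7.4, 8.3 mM MgCl2, 1.7 mM EGTA, 3 mg/mL BSA, then incubated with PDE4 and [2,8-3H]-cAMP for 120 min at room temperature. Product captured on ZnSO4-containing YSi-SPA beads for 15 min; radioactivity counted against no-enzyme blank and DMSO control.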
`OC(c1cc(-c2nccs2)c2oc(N3CC4CCC(C3)N4)nc2c1)C(F)(F)F` (centres unmarked) [Example 138, 1-(2-(3,8-Diazabicyclo[3.2.1]octan-3-yl)-7-(thiazol-2-yl)benzo[d]oxazol-5-yl)-2,2,2-trifluoroethan-1-ol]: the IC50 is less than 100 nM.
On to `COC(c1cc(-c2nccs2)c2oc(N3CC4CCC(C3)N4)nc2c1)C(F)F` (centres unmarked) [Example 105, 2-(3,8-Diazabicyclo[3.2.1]octan-3-yl)-5-(2,2-difluoro-1-methoxyethyl)-7-(thiazol-2-yl)benzo[d]oxazole], for which the IC50 was less than 100 nM.
With `OC(c1ccc(-c2nccs2)c2oc(N3CC4CCC(C3)N4)nc12)C(F)F` (centres unmarked) [Example 128, 1-(2-(3,8-Diazabicyclo[3.2.1]octan-3-yl)-7-(thiazol-2-yl)benzo[d]oxazol-4-yl)-2,2-difluoroethan-1-ol], the IC50 was less than 100 nM.
For the compound `Cc1ccc(-c2nccs2)c2oc(N3CC4CCC(C3)N4)nc12` [Example 25, 2-(3,8-Diazabicyclo[3.2.1]octan-3-yl)-4-methyl-7-(thiazol-2-yl)benzo[d]oxazole], the IC50 was less than 100 nM.
As to `CC(O)(c1ccc(-c2nccs2)c2oc(N3CC4CC(C3)N4)nc12)C(F)(F)F` (centres unmarked) [Example 234, 2-(2-(3,6-Diazabicyclo[3.1.1]heptan-3-yl)-7-(thiazol-2-yl)benzo[d]oxazol-4-yl)-1,1,1-trifluoropropan-2-ol], the IC50 was less than 100 nM.
Still for that read-out and setting: then `CS(=O)(=O)c1cc(-c2nccs2)c2oc(N3CC4CCC(C3)N4)nc2c1` [Example 45, 2-(3,8-Diazabicyclo[3.2.1]octan-3-yl)-5-(methylsulfonyl)-7-(thiazol-2-yl)benzo[d]oxazole], with less than 100 nM; and `CC(O)c1cc(-c2nccs2)c2oc(N3CC4CCC(C3)N4)nc2c1` (centres unmarked) [Example 106, 1-(2-(3,8-Diazabicyclo[3.2.1]octan-3-yl)-7-(thiazol-2-yl)benzo[d]oxazol-5-yl)ethan-1-ol], with less than 100 nM; and `CC(C)(O)COC(c1ccc(-c2nccs2)c2oc(N3CC4CC(C3)N4)nc12)C(F)(F)F` (centres unmarked) [Example 255], with less than 100 nM.
In the case of `CS(=O)(=O)c1cc(-c2nccs2)c2oc(N3CC4CC(C3)N4)nc2c1` [Example 46, 2-(3,6-Diazabicyclo[3.1.1]heptan-3-yl)-5-(methylsulfonyl)-7-(thiazol-2-yl)benzo[d]oxazole], the IC50 is less than 100 nM.
As for `OC(c1cc(-c2nccs2)c2oc(N3CC4CCC(C3)N4)nc2c1OC(F)(F)F)C(F)F` (centres unmarked) [Example 206, 1-(2-(3,8-Diazabicyclo[3.2.1]octan-3-yl)-7-(thiazol-2-yl)-4-(trifluoromethoxy)benzo[d]oxazol-5-yl)-2,2-difluoroethan-1-ol], the IC50 is less than 100 nM.
Turning to `OC(c1cc(-c2nccs2)c2oc(N3CC4CC(C3)N4)nc2c1OC(F)(F)F)C(F)F` (centres unmarked) [Example 293, 1-(2-(3,6-Diazabicyclo[3.1.1]heptan-3-yl)-7-(thiazol-2-yl)-4-(trifluoromethoxy)benzo[d]oxazol-5-yl)-2,2-difluoroethan-1-ol], the IC50 was less than 100 nM.
With `OC(c1ccc(-c2nccs2)c2oc(N3CC4CC(C3)N4)nc12)C(F)F` (centres unmarked) [Example 125, 1-(2-(3,6-Diazabicyclo[3.1.1]heptan-3-yl)-7-(thiazol-2-yl)benzo[d]oxazol-4-yl)-2,2-difluoroethan-1-ol], the IC50 is less than 100 nM.
For the compound `CC(O)C(F)(F)Oc1ccc(-c2nccs2)c2oc(N3CC4CC(C3)N4)nc12` (racemic) [Example 250, 1-((2-(3,6-Diazabicyclo[3.1.1]heptan-3-yl)-7-(thiazol-2-yl)benzo[d]oxazol-4-yl)oxy)-1,1-difluoropropan-2-ol], the IC50 is less than 100 nM.
Take `Oc1ccc(-c2nccs2)c2oc(N3CC4CCCC(C3)N4)nc12` [Example 80, 2-(3,9-Diazabicyclo[3.3.1]nonan-3-yl)-7-(thiazol-2-yl) benzo[d]oxazol-4-ol]: the IC50 was less than 100 nM.
With `COC(c1ccc(-c2nccs2)c2oc(N3CC4CC(C3)N4)nc12)C(F)F` (centres unmarked) [Example 130, 2-(3,6-Diazabicyclo[3.1.1]heptan-3-yl)-4-(2,2-difluoro-1-methoxyethyl)-7-(thiazol-2-yl)benzo[d]oxazole], the IC50 was less than 100 nM.
In the case of `OC(c1cc(-c2nccs2)c2oc(N3CC4CCC(C3)N4)nc2c1)C(F)(F)F` (centres unmarked) [Example 139, 1-(2-(3,8-Diazabicyclo[3.2.1]octan-3-yl)-7-(thiazol-2-yl)benzo[d]oxazol-5-yl)-2,2,2-trifluoroethan-1-ol], the IC50 is less than 100 nM.
Regarding `COCCOC(c1ccc(-c2nccs2)c2oc(N3CC4CC(C3)N4)nc12)C(F)(F)F` (centres unmarked) [Example 229, 2-(3,6-Diazabicyclo[3.1.1]heptan-3-yl)-7-(thiazol-2-yl)-4-(2,2,2-trifluoro-1-(2-methoxyethoxy)ethyl)benzo[d]oxazole], the IC50 is less than 100 nM.
On to `OC1CCC(Oc2ccc(-c3nccs3)c3oc(N4CC5CC(C4)N5)nc23)CC1` (centres unmarked) [Example 305, 4-((2-(3,6-Diazabicyclo[3.1.1]heptan-3-yl)-7-(thiazol-2-yl)benzo[d]oxazol-4-yl)oxy)cyclohexan-1-ol], for which the IC50 is less than 100 nM.
`CCOC(=O)c1cc(-c2nccs2)c2oc(N3CC4CC(C3)N4)nc2c1` [Example 87, Ethyl 2-(3,6-diazabicyclo[3.1.1]heptan-3-yl)-7-(thiazol-2-yl)benzo[d]oxazole-5-carboxylate]: the IC50 was less than 100 nM.
Turning to `Clc1ccc(-c2nccs2)c2oc(N3CC4CCCC(C3)N4)nc12` [Example 38, 2-(3,9-Diazabicyclo[3.3.1]nonan-3-yl)-4-chloro-7-(thiazol-2-yl)benzo[d]oxazole], the IC50 is less than 100 nM.
Same read-out and setting: then `CC(=O)Nc1ccc(-c2nccs2)c2oc(N3CC4CC(C3)N4)nc12` [Example 35, N-(2-(3,6-diazabicyclo[3.1.1]heptan-3-yl)-7-(thiazol-2-yl)benzo[d]oxazol-4-yl)acetamide], with 100 to 1000 nM; and `O=C(O)COc1cc(-c2nccs2)c2oc(N3CC4CCC(C3)N4)nc2c1` [Example 74, 2-((2-(3,8-Diazabicyclo[3.2.1]octan-3-yl)-7-(thiazol-2-yl)benzo[d]oxazol-5-yl)oxy)acetic acid], with less than 100 nM.
Regarding `CC(C)(O)c1cc(-c2cscn2)c2oc(N3CC4CCC(C3)N4)nc2c1OC(F)(F)F` [Example 291, 2-(2-(3,8-Diazabicyclo[3.2.1]octan-3-yl)-7-(thiazol-4-yl)-4-(trifluoromethoxy)benzo[d]oxazol-5-yl)propan-2-ol], the IC50 is less than 100 nM.
On to `OC1(c2cc(-c3nccs3)c3oc(N4CC5CC(C4)N5)nc3c2OC(F)(F)F)CC1` [Example 269, 1-(2-(3,6-Diazabicyclo[3.1.1]heptan-3-yl)-7-(thiazol-2-yl)-4-(trifluoromethoxy)benzo[d]oxazol-5-yl)cyclopropan-1-ol], for which the IC50 is less than 100 nM.
With `CS(=O)(=O)c1cc(-c2nccs2)c2oc(N3CC4CCCC(C3)N4)nc2c1` [Example 47, 2-(3,9-Diazabicyclo[3.3.1]nonan-3-yl)-5-(methylsulfonyl)-7-(thiazol-2-yl)benzo[d]oxazole], the IC50 was less than 100 nM.
For the compound `FC(F)(F)c1cc(-c2nccs2)c2oc(N3CC4CC(C3)N4)nc2c1` [Example 52, 2-(3,6-Diazabicyclo[3.1.1]heptan-3-yl)-7-(thiazol-2-yl)-5-(trifluoromethyl)benzo[d]oxazole], the IC50 is less than 100 nM.
For the compound `COC(C)(c1cc(-c2nccs2)c2oc(N3CC4CC(C3)N4)nc2c1)C(F)(F)F` (centres unmarked) [Example 103, 2-(3,6-Diazabicyclo[3.1.1]heptan-3-yl)-7-(thiazol-2-yl)-5-(1,1,1-trifluoro-2-methoxypropan-2-yl)benzo[d]oxazole], the IC50 is less than 100 nM.
Turning to `CC(=O)c1cc(-c2nccs2)c2oc(N3CC4CCC(C3)N4)nc2c1C(F)(F)F` [Example 179, 1-(2-(3,8-Diazabicyclo[3.2.1]octan-3-yl)-7-(thiazol-2-yl)-4-(trifluoromethyl)benzo[d]oxazol-5-yl)ethan-1-one], the IC50 is less than 100 nM.
Consider `CC(O)c1cc(-c2nccs2)c2oc(N3CC4CC(C3)N4)nc2c1C(F)(F)F` (centres unmarked) [Example 182, 1-(2-(3,6-Diazabicyclo[3.1.1]heptan-3-yl)-7-(thiazol-2-yl)-4-(trifluoromethyl)benzo[d]oxazol-5-yl)ethan-1-ol], for which the IC50 is less than 100 nM.
Still for that read-out and setting: then `CCOC(=O)c1cc(-c2nccs2)c2oc(N3CC4CCC(C3)N4)nc2c1OC(F)(F)F` [Example 186, Ethyl 2-(3,8-diazabicyclo[3.2.1]octan-3-yl)-7-(thiazol-2-yl)-4-(trifluoromethoxy)benzo[d]oxazole-5-carboxylate], with less than 100 nM; and `OC(c1cc(-c2nccs2)c2oc(N3CC4CC(C3)N4)nc2c1OC(F)(F)F)C(F)F` (centres unmarked) [Example 207, 1-(2-(3,6-Diazabicyclo[3.1.1]heptan-3-yl)-7-(thiazol-2-yl)-4-(trifluoromethoxy)benzo[d]oxazol-5-yl)-2,2-difluoroethan-1-ol], with less than 100 nM.
On to `O=C(c1ccc(-c2nccs2)c2oc(N3CC4CCC(C3)N4)nc12)N1CCCCC1` [Example 117, (2-(3,8-Diazabicyclo[3.2.1]octan-3-yl)-7-(thiazol-2-yl)benzo[d]oxazol-4-yl)(piperidin-1-yl)methanone], for which the IC50 is less than 100 nM.
Take `FC(F)(F)Oc1cc(-c2nccs2)c2oc(N3CC4CCC(C3)N4)nc2c1` [Example 54, 2-(3,8-Diazabicyclo[3.2.1]octan-3-yl)-7-(thiazol-2-yl)-5-(trifluoromethoxy)benzo[d]oxazole]: the IC50 is less than 100 nM.
Still for that read-out and setting: as for `OCCOC(c1cc(-c2nccs2)c2oc(N3CC4CCC(C3)N4)nc2c1)C(F)(F)F` (centres unmarked) [Example 149, 2-(1-(2-(3,8-Diazabicyclo[3.2.1]octan-3-yl)-7-(thiazol-2-yl)benzo[d]oxazol-5-yl)-2,2,2-trifluoroethoxy)ethan-1-ol], the figure is less than 100 nM.

Still in this test, the particulars now being: scintillation proximity assay; class symbols; read-out: PDE4 Inhibitory Activity.
`O=C(NCc1ccccc1)c1ccc(-c2nccs2)c2oc(N3CC4CC(C3)N4)nc12` [Example 361, N-benzyl-2-(3,6-diazabicyclo [3.1.1]heptan-3-yl)-7-(thiazol-2-yl) benzo oxazole-4-carboxamide]: the IC50 was less than 100 nM.
